Experimental findings from patent publication US4381301A, “Substituted tricyclic thieno compounds, their synthesis, their use, their compositions and their medicaments” (BYK Gulden Lomberg Chemische Fabrik GmbH, priority 1980, dated 1983) are described below.

Data set [1] in a line: Determination of acute toxicity (LD50) in mice. Particulars: mouse, in vivo; intravenous administration to mice; 7 days observation. As for the experimental part:
LD50 = dose at which 50% of the animals
The toxicity investigations are carried out on female NMRI mice (body weight: 22 to 26 g). The animals (5 animals per dose) receive feed and water ad libitum. Various doses of the substances are administered intravenously (injection time: 1 minute). The observation period is 7 days. The LD50 (the dose at which 50% of the animals die) is determined by means of linear regression.

For data set [2], the system named is Gastric secretion. The data set can be described thus: Inhibition of gastric secretion in the Shay rat. Particulars: in rats, 4 hours after administration of the antiulcerogenic ED50. The data set is classed as in vivo. On the procedure: ^(+) % inhibition = inhibition of the gastric secretion (in %) 4 hour
after administration of the antiulcerogenic ED50
(§1) Rats (female, 180 to 200 g, 4 animals per cage on a high grid) which had been fasted for 24 hours were subjected to ulcer provocation by pylorus ligature (under diethyl ether anaesthesia) and oral administration of 100 mg/10 ml/kg of acetylsalicylic acid. The substances to be tested are administered orally (10 ml/kg) 1 hour before the pylorus ligature. The wound is closed by means of Michel clamps. 4 hours thereafter, the animals are killed under ether anaesthesia by atlas dislocation, and the stomach is removed. The stomach is opened longitudinally and fixed to a cork tile after the amount of gastric juice secreted (volume) has been determined; the number and size (=diameter) of ulcers present are determined with a stereomicroscope with 10-fold magnification. The product of the degree of severity (according to the following rating scale) and the number of ulcers serves as the individual ulcer index.

Data set [3] can be described thus: Antiulcerogenic (protective) action on the stomach, so-called Shay rat (pylorus ligature + acetylsalicylic acid), ulcer index. Type of data set: in vivo. Particulars: rat, in vivo; LD50 i.v. mice / ED50 p.o. rats; read-out: TQ LD50/ED50 (therapeutic quotient). As for the experimental part: (§2) ED50 = dose which reduces the ulcer index by 50% in the treated grou
(§3) compared with the control group
(§4) The antiulcerogenic action was tested in accordance with the method using the so-called Shay rat:
as §1, with “index. […]” for “index.”
(§5) ______________________________________
(§6) The reduction in the average ulcer index of each treated group compared with that of the control group (=100%) serves as a measure of the antiulcerogenic effect. The ED50 designates the dose which reduces the average ulcer index by 50%.

Data set [4] has as its system stomach (Shay rat, gastric ulcers). The description is as above. Type of data set: in vivo. The note with it: for ED50: Rattus norvegicus, po, peroral administration to rats, 1 hour before pylorus ligature, dose which reduces the ulcer index by 50% compared with control; for dose/action curve (antiulcerogenic action): compound 1 even at 300 mg/kg. On the procedure:
as §2, §3, §4
as §1, with “index. […]” for “index.”
as §5, §6

In data set [1], `CN1CCN(CC(=O)N2c3ccccc3NC(=O)c3cscc32)CC1` [compound 2, 9,10-dihydro-4-[(4-methylpiperazin-1-yl)acetyl]-4H-thieno[3,4-b][1,5]benzodiazepin-10-one] returned an LD50 at 168 h of 190 mg/kg. In addition, in data set [2], the “Gastric secretion % inhibition” value was 35%. In addition, in data set [3], the selectivity ratio turned out to be 76. Moreover, in data set [4] (10 mg/kg, oral, rats), the “inhibition effects (antiulcerogenic action)” value is listed as “up to 95%”. The ED50 in data set [4] is 2.5 mg/kg. Further, the “dose/action curve (antiulcerogenic action)” value in data set [4] (oral, rats) is reported as “strictly dependent on the dose”.

Turning to `CC1(C)[C@@H](OC(=O)CCC(=O)O)CC[C@]2(C)[C@H]3C(=O)C=C4[C@@H]5C[C@@](C)(C(=O)O)CC[C@]5(C)CC[C@@]4(C)[C@]3(C)CC[C@@H]12` [compound 1, carbenoxolone, reference compound], the “Gastric secretion % inhibition” value in data set [2] worked out at 7%. Moreover, the selectivity ratio in data set [3] amounted to 4.1. The ED50 in data set [4] was approximately 70 mg/kg. Moreover, the “dose/action curve (antiulcerogenic action)” value in data set [4] (oral, rats) is reported as “very severely flattened so that no substantial increase in the ulcerogenic action can be achieved even at 300 mg/kg”.

One may read the LD50 as the dose expected to kill half of the subjects tested. A high value points to a less toxic substance. The term ED50 denotes the dose at which the effect has come halfway, by size or by number of responders.
